Data set [1] relates to Fungal cells. Description: Disk diffusion assay for antimicrobial activity (Example 2), zone of growth inhibition. It counts as cell-based. As to conditions: for zone of growth inhibition, diameter / zone of inhibition at 100 µg/disc: 37° C., 24 hours; for zone of inhibition at 100 µg/disc: 100 μg per 6 mm disk, read-out: zone of growth inhibition, diameter. As to the method:
(§1) Fungal cells were grown overnight from a single colony in 2-5 ml Sabouraud Dextrose Broth at 37° C. 1-5×10^6 were spread onto Sabouraud Dextrose Agar plates (Difco, Detroit, Mich.). Sterile 6 mm filter disks were evenly spaced with at least about 22 mm separation on the plates. To each disk, 100 μg of a compound to be tested was applied in 5-10 μl DMSO. On each plate, two disks containing 2.5 and 10 μg, respectively, of Amphotericin B (Sigma) and two disks containing 2.5 and 10 μg, respectively, of cerulenin (Sigma) were used as positive controls. A disk containing only DMSO served as the negative control. The plates were incubated at 37° C. for 24 hours and the zone of growth inhibition about each disk was visually examined and measured. Compound A and compound B typically produced clear zones of 8-12 mm diameter. Amphotericin B typically produced a clear zone of 8-10 mm diameter. Cerulenin typically produced a hazy zone of 20-25 mm diameter. A clear zone is indicative of fungicidal activity, while a hazy zone is indicative of fungistatic activity.
(A growth-free zone around the sample is the usual read-out of agar diffusion tests.)

In data set [2] the test system is C. albicans strain ATCC 10231. The data set is described as follows: Murine systemic model of candidiasis. It counts as in vivo, mice. As to conditions: for % Survival: 10 mg/kg IP one hour after inoculation, after nine days. As to the method:
(§2) In vivo activity was determined using a murine systemic model of candidiasis. Groups of 5 to 10 mice were inoculated IV with 1-2×10^7 cells of C. albicans strain ATCC 10231 (10 times the lethal dose). One hour after inoculation, the candidate antifungal compounds were delivered IP. 10 mg/kg of compound A was injected into each mouse of the compound A treatment group. Two separate treatment groups received 30 and 100 mg/kg, respectively, of compound B. Amphotericin B was injected into a positive control treatment group at 10 mg/kg. All compounds were delivered in phosphate-buffered saline (PBS) and one treatment group received PBS. Twice daily thereafter the mice were observed, the number of dead mice recorded, and the dead mice removed. After nine days, the total mortality over the period was determined.

Data set [3] has as its target T1, FAS of C. Albicans strain 4918 (Candida albicans, UniProt P34731+P43098).
T1 construct: endogenous in cells; host or cells: Candida albicans strain 4918 (from Dr. Ronald Cihlar, Georgetown University Medical Center)
The data set is described as follows: FAS activity in extracts of treated C. Albicans cultures (Example 10). It counts as cell-based. As to conditions: read-out: Percent Remaining FAS Activity. As to the method:
C. Albicans strain 4918 (available from Dr. Ronald Cihlar, Georgetown University Medical Center, Washington, D.C.) was grown in minimal medium (M63 media available from Difco, Detroit, Mich.) at 37° C. to mid-log phase. 10 μg/ml cerulenin and 25 μg/ml of compound B were added to separate cultures. At 15 minute intervals, 20 ml samples were removed and extracts prepared by mechanical extraction as in Example 1C, except that the ammonium sulfate precipitation step was not applied. The extract was diluted to 1 ml to form a solution containing 0.4M potassium phosphate, pH 7.3, 0.125 μM dithiothreitol, 50 μM acetyl-CoA, 100 μM NADPH. After incubation at 37° C. for 5 minutes, 100 μM malonyl-CoA containing 0.5 μCi [2-^14 C]-malonyl-CoA (Amersham, Arlington Heights, Ill.). After 10 minutes at 37° C., the fatty acid synthesis reaction was terminated by adding 30 μl of 60% perchloric acid (v/v) and 1 ml ethanol. Four volumes of pet. ether were added to each reaction incubation to extract the fatty acids. The relative incorporation of malonyl-CoA into fatty acids was determined by liquid scintillation counting.

Data set [4] concerns Candida Albicans strain B311A. Description: MIC assay (Example 1B). Conditions: for MIC: Candida albicans. The class given is cell-based. As to the method: The fractions from the purification were tested for antifungal activity against C. albicans (strain B311A available from Dr. Paul Actor, Temple University and strains ATCC Nos. 10231 and 10261) and C. tropicalis (strain 13803). […] Prior to the assay for antifungal activity, the fungus to be tested for susceptibility was grown overnight from a single colony in 5 ml of medium at 30° C. This overnight culture was diluted 1:10 with fresh medium and grown at 37° C. for 4 hours. A volume of 5 μl of extracts, dissolved in DMSO, was added to each separate well in a series of 96-well plates. 4,000 fungal cells were then added to each plate in 95 μl of medium. The optical densities of the wells were measured and the plates incubated at 37° C. The optical densities were again measured after 24 and 48 hours. Minimum inhibitory concentrations ("MICs") for the extracts were determined using this procedure wherein the extracts were serially diluted in medium prior to mixing with the 4,000 fungal cells.

Data set [5] addresses T2, FAS from S. cereviseae (Saccharomyces cerevisiae, UniProt P07149+P19097).
T2 construct: an FAS extract from Saccharomyces cerviseae was prepared; (the yeast itself); host or cells: Fleishmans' freeze dried yeast (Saccharomyces cerevisiae); dialyzed ammonium sulfate precipitate of the lysate
Description: FAS inhibition assay (Example 1C). The class given is biochemical. As to the method: To test the compounds for FAS inhibitory activity, an FAS extract from Saccharomyces cerviseae was prepared. Freeze dried yeast (Fleishmans' freeze dried yeast, Specialty Brands, San Francisco, Calif.) 1 g, was hydrated in 5 mls deionized water for 15 minutes at 4° C. Subsequent extraction steps were conducted at a temperature between 4° C. and 10° C., except that in the cell lysis step the temperature may have briefly exceeded these boundaries. The cells were pelleted by centrifugation; the pelleted volume was measured; and the cells were resuspended in 5 vol. (5 mls per ml cell volume) extraction buffer [125 mM KH2PO4, pH 6.6, 1 mM EDTA, 1 mM DTT, 0.7 μg/ml pepstatin (Boehringer Mannheim, Indianapolis, Ind.), 0.2 μg/ml aprotinin (Boehringer Mannheim, Indianapolis, Ind.), 0.2 μg/ml leupeptin (Boehringer Mannheim, Indianapolis, Ind.)]. The cells were again pelleted and resuspended in 2 vol. extraction buffer. The cells were lysed using a bead mill homogenizer (Biospec Products, Bartlesville, OD) with a volume of glass beads equal to the volume of the yeast cells. The bead mill was operated five times for 1 minute, with 1 minute intervals between operations to allow the water jacket of the bead mill to cool the material in the mill. The lysate was centrifuged at 30,000×g for 30 minutes and the supernate was collected. Ammonium sulfate was added to the supernate to 50% saturation and the mixture was stirred for 30 minutes on ice. […]
105 μl of FAS extract was placed in each well of a polypropylene 96 well plate (Costar Corp. Cambridge, Mass.) and multiple 5 μl dilutions of compound A, compound B or negative control solution were introduced into each of the wells. […] The relative initial reaction rates in each well were measured by measuring the decrease in optical density at 340 nm using a UV Max microtiter plate reader (Molecular Devices, Sunnyvalle, Calif.).

In data set [6] the test system is Candida albicans (strains ATCC 10231 and ATCC 10261). Description: Disk diffusion assay for antimicrobial activity (Example 2). It counts as cell-based. As to the method: as §1
For data set [7], the system named is Candida tropicalis (strain ATCC 13803). The description is as above. The class given is cell-based. The procedure:
as §1

Data set [8] is described as follows: Maximal tolerated dose in mice, IP administration. As to conditions: mouse, in vivo, read-out: maximal tolerated dose (maximum dose that caused no deaths within 72 hours). The procedure: as §2
Using the same methodology, it was determined that the maximal tolerated dose in these mice (i.e., the maximum dose that caused no deaths within 72 hours following IP administration) of compound B was in excess of 200 mg/kg. The mice treated with 2108B or Amphotericin B injected IP in […] of phosphate buffered saline, pH 7.4 had the following treatment profiles: […]

Setting [9] is: positive control disks with 2.5 and 10 μg.

Values after ≈ are worked out from the molar mass of the structure shown. Like-named read-outs stand apart in the source and are kept apart here.

T2 sequence (P19097 whole entry): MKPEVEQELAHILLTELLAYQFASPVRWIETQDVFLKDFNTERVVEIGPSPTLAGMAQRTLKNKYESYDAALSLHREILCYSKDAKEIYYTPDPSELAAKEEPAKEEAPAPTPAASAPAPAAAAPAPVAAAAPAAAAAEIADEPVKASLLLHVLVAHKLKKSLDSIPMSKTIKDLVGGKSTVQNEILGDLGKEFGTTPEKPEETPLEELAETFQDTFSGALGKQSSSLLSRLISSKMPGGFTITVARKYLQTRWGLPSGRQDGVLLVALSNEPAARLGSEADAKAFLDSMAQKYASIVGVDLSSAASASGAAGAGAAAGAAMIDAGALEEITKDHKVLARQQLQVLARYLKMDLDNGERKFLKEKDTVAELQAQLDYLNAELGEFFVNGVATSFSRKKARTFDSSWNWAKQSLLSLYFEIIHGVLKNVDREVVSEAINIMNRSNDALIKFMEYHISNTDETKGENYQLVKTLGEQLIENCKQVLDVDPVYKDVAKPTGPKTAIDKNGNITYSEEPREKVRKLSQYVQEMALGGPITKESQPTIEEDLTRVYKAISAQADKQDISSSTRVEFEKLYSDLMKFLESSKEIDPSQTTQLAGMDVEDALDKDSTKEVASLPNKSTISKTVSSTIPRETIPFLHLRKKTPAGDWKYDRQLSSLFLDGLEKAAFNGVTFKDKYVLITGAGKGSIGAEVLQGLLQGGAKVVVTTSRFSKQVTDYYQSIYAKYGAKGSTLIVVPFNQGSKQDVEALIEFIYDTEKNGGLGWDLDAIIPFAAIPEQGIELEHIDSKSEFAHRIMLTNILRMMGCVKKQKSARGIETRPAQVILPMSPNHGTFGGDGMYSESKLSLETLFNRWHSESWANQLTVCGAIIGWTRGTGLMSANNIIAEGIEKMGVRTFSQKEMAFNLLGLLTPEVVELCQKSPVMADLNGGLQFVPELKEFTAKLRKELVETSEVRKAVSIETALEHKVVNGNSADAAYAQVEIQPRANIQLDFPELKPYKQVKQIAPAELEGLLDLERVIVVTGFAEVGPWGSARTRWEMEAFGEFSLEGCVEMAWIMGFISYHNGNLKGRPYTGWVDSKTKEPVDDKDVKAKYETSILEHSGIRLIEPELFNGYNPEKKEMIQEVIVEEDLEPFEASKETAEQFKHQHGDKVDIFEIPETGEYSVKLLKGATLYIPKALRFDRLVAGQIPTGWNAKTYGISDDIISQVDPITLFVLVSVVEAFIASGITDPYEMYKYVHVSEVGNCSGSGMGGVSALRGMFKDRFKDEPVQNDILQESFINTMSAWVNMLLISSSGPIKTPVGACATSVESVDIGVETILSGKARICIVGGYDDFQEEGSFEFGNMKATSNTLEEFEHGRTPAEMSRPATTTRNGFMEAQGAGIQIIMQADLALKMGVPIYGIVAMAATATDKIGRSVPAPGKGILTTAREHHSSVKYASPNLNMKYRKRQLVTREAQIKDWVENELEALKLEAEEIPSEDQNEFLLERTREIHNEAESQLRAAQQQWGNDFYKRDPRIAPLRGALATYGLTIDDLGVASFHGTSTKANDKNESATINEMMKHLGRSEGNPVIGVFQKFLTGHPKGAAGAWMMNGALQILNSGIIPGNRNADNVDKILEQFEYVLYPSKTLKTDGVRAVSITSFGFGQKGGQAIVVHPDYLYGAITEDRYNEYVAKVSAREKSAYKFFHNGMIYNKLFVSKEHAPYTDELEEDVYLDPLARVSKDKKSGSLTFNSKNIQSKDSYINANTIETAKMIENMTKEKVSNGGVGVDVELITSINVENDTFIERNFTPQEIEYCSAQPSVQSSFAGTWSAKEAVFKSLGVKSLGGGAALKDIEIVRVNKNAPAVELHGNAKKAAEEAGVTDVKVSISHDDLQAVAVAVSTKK
T2 sequence (P07149 whole entry): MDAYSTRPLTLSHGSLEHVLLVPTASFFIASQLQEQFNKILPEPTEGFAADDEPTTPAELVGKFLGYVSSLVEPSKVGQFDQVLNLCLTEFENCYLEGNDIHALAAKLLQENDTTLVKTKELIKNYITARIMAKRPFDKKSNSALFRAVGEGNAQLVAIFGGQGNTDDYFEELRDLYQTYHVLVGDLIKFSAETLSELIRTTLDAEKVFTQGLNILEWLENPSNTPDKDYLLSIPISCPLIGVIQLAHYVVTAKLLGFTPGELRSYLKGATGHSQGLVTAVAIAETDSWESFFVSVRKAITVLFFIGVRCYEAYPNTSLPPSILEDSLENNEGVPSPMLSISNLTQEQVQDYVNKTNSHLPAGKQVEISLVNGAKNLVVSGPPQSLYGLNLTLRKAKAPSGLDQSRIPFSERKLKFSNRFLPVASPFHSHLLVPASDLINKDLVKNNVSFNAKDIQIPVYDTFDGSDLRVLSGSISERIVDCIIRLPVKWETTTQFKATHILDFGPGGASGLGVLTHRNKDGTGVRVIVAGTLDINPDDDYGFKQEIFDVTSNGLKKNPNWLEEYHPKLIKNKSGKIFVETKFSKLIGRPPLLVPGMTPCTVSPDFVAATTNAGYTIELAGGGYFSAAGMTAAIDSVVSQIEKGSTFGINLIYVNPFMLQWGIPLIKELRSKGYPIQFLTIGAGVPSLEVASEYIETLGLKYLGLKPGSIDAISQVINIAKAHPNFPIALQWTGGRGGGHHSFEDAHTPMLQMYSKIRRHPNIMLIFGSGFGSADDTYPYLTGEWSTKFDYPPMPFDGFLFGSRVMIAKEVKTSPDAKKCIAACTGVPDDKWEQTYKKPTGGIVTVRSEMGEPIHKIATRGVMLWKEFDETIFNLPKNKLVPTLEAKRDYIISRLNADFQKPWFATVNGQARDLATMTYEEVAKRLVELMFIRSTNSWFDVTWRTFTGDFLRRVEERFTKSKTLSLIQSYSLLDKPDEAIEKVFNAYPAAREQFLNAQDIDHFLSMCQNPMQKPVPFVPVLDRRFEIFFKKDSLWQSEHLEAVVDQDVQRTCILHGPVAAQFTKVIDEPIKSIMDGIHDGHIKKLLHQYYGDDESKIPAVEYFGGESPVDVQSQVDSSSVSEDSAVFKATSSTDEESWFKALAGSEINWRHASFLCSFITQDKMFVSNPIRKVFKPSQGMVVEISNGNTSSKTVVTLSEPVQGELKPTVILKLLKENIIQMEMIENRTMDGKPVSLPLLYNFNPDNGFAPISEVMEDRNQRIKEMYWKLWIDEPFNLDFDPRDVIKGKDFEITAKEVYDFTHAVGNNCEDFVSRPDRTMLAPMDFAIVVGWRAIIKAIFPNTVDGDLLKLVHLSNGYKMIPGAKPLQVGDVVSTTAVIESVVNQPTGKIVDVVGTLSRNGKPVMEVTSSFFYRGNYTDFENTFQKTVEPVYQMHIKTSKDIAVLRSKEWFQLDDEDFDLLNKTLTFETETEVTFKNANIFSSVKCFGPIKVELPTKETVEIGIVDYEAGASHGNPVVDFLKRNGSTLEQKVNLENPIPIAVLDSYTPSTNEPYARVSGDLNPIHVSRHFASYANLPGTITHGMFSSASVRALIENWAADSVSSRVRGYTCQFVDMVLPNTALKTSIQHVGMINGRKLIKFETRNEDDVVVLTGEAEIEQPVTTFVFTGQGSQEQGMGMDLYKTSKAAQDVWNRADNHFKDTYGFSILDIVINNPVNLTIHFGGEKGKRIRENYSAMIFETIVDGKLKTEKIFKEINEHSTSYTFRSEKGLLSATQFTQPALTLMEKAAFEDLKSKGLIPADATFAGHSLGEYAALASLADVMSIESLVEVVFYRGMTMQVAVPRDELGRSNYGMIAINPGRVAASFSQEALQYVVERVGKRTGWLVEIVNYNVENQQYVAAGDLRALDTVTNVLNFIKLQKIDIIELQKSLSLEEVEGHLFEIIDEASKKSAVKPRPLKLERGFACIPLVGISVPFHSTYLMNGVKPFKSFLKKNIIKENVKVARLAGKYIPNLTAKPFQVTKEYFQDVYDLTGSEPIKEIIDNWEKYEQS

Consider `C[C@@H]1[C@H](O)[C@@H](C)/C=C/C=C/C=C/C=C/C=C/C=C/C=C/[C@H](O[C@@H]2O[C@H](C)[C@@H](O)[C@H](N)[C@@H]2O)C[C@@H]2O[C@](O)(C[C@@H](O)C[C@@H](O)[C@H](O)CC[C@@H](O)C[C@@H](O)CC(=O)O[C@H]1C)C[C@H](O)[C@H]2C(=O)O` [Amphotericin B, reference compound], for which, in data set [1] (setting [9]), the “zone appearance (clear = fungicidal, hazy = fungistatic)” value (from here on “zone appearance”) is reported as “clear zone” and the “zone of growth inhibition, diameter” value is recorded as 8-10 mm. In addition, in data set [2] (10 mg/kg IP), the “Deaths Each Day Post Inoculation, day 0” value was 0; the “Deaths Each Day Post Inoculation, day 1” value came to 0; the “Deaths Each Day Post Inoculation, day 3” value is recorded as 0; the “Deaths Each Day Post Inoculation, day 5” value amounted to 0. Moreover, in data set [2] (10 mg/kg IP), the “Deaths Each Day Post Inoculation, day 6” value is reported as 0; the “Deaths Each Day Post Inoculation, day 7” value amounted to 0; the “Deaths Each Day Post Inoculation, day 8” value is reported as 0; the “Deaths Each Day Post Inoculation, day 9” value was determined as 0. The “% Survival” value in data set [2] is 80%.
On to `C/C=C/C/C=C/CCC(=O)[C@H]1O[C@H]1C(N)=O` [Cerulenin, cerulenin, reference compound], for which, in data set [1] (setting [9]), the “zone appearance” value was “hazy zone” and the “zone of growth inhibition, diameter” value was 20-25 mm. In addition, in data set [3] (0.25 h), the remaining activity (as a rule, the signal under treatment as a percentage of the control signal) at 10 µg/mL was found to be 20%. Besides, the remaining activity at 10 µg/mL in data set [3] (0.5 h) came to 12%.
`C/C=C/C=C/C=C/C1=CC2=CC(=O)C(C)(OC(=O)CC(C)O)C(=O)C23OC3O1` (centres unmarked) [Compound A]: 50 µg/mL (≈ 129 µM) was the least that counted as inhibitory in data set [4] (Sabouraud Dextrose Broth substituted for YNB medium) (MIC). Also, it took 25 µg/mL (≈ 64.7 µM) to inhibit growth in data set [4] (YNB medium) (MIC). Also, the “activity in the MIC assay of Example 1B (in words)” value in data set [4] (HPLC-purified material, strain not stated) was “retained activity”. Moreover, in data set [5], the “FAS inhibition in the in vitro enzyme inhibition assay (in words)” value is recorded as “retained activity” and the IC50 (as a rule, the concentration needed to halve the response being measured) is 414 µM. The zone of inhibition (commonly the size of the clear area around the sample on an inoculated plate) at 100 µg/disc in data set [1] was in the range of 8 to 12 mm. Moreover, in data set [1] (100 μg per disk), the “zone appearance” value is given as “clear zones”. Also, the “antimicrobial activity (in words)” value in data set [6] is listed as “had antimicrobial activity”. The “antimicrobial activity (in words)” value in data set [7] was “had antimicrobial activity”. Further, the MTD at 72 h in data set [8] worked out at 10 mg/kg. Moreover, in data set [2] (10 mg/kg IP), the “Deaths Each Day Post Inoculation, day 0” value was found to be 0; the “Deaths Each Day Post Inoculation, day 1” value is given as 0; the “Deaths Each Day Post Inoculation, day 2” value worked out at 2; the “Deaths Each Day Post Inoculation, day 3” value is on record as 3. In addition, in data set [2] (10 mg/kg IP), the “Deaths Each Day Post Inoculation, day 4” value is on record as 0; the “Deaths Each Day Post Inoculation, day 5” value was found to be 0; the “Deaths Each Day Post Inoculation, day 6” value turned out to be 0; the “Deaths Each Day Post Inoculation, day 7” value is listed as 0. Moreover, in data set [2] (10 mg/kg IP), the “Deaths Each Day Post Inoculation, day 8” value stood at 0 and the “Deaths Each Day Post Inoculation, day 9” value is 0. In data set [2], the “% Survival” value is 0%.
On to `C/C=C/C=C/C=C/C1=CC2=CC(=O)C(C)(OC(=O)CC(O)CC(C)O)C(=O)C23OC3O1` (centres unmarked) [patulodin, reference compound], for which the MIC (in general, the lowest concentration found to suppress growth) in data set [4] (YNB medium) was above 100 µg/mL. In data set [1], the zone of inhibition at 100 µg/disc is 7 mm.

These data come from patent publication US5859027A, “Antimicrobial agent” (ChekTec Corporation, priority 1997, dated 1999).
